Assay results from patent EP0367514A2, “Human leukocyte elastase inhibitors and methods for producing and using same” (UNIVERSITY OF KENTUCKY RESEARCH FOUNDATION, priority 1988, dated 1990).

Molecular target: T1, enzyme elastase, e.g., human leukocyte elastase (HLE) and porcine pancreatic elastase (PPE) (Homo sapiens, UniProt P08246)
T1 sequence (P08246 30-247): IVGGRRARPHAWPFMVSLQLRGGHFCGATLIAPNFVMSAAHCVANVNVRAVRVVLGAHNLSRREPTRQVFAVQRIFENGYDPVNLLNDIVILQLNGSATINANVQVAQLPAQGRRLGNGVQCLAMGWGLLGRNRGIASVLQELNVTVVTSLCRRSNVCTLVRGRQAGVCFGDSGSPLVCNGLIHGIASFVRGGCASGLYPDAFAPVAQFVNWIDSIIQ
Assay: Elastase enzyme inhibitory studies (Ki of peptidyl carbamates)
Format: biochemical
Experimental: These studies are conducted to show the activities of some of the compounds of this invention as inhibitors of various forms of the enzyme elastase.
All enzyme assays are performed spectrophotometrically at 25 C using CARY 219 or 2200 Vanan Spectrometers. The activity of PPE is measured using 5-Boc-L-alinlne p-mtrophenyl ester (Boc-Ala-ONP), as the substrate and monitoring the absorbance at 347.5 nm (p-nitrophenol). The activity of HLE is measured using methoxy succinyl-L-analyl-L-alanyl L-prolyl-L-valine pnitroanilide (MeO-Suc-Ala-Ala-Pro-Val-NA), as the substrate and following the absorbance at 410 nm (pnitroaniline). Active inhibitors are tested against other serine dependent proteolytic enzymes such as tryps in and chymotryps in using their respective substrates. N-benzoyl-L-arginine ethyl ester, N-benzoyl-L-tyrosine ethyl ester and monitonng the absorbance at 253 and 256 respectively. […]

Compound	Ki (inhibitor dissociation constant) [nM]
COC(=O)CCC(=O)NC(C)C(=O)NC(CCCCNC(=O)OCc1ccccc1)C(=O)N1CCCC1C(=O)CN(C(=O)Sc1nnnn1-c1ccccc1)C(C)C (stereo not drawn) [PC5, S-(1-phenyl-5-tetrazoyl)-N-[methoxysuccinyl-alanyl-(N∈-Carbobenzoxyl)lysylprolylmethyl]-N-isopropyl-thio carbamate]	20
COC(=O)CCC(=O)NC(CCCNC(=O)OCc1ccccc1)C(=O)NC(C)C(=O)N1CCCC1C(=O)CN(C(=O)Sc1nnnn1-c1ccccc1)C(C)C (stereo not drawn) [PC6, S-(1-phenyl-5-tetrazoyl)-N-[methoxysuccinyl-(N -carbobenzoyl)ornithylalanyl(prolylmethyl)-N-isopropylthio carbamate]	3
